Drawing on patent US20130281465A1, “PYRAZOLE DERIVATIVE” (TAISHO PHARMACEUTICAL CO., LTD., priority 2010, published 2013), this text covers IC50 for 15 compounds.

Experiment [1] concerns the target T1, orexin type 2 receptor (hOX2R) (Homo sapiens, UniProt O43614).
T1 construct: expressed in transfected cells; host or cells: Chinese hamster ovary (CHO) cells
T1 sequence (O43614 1-444): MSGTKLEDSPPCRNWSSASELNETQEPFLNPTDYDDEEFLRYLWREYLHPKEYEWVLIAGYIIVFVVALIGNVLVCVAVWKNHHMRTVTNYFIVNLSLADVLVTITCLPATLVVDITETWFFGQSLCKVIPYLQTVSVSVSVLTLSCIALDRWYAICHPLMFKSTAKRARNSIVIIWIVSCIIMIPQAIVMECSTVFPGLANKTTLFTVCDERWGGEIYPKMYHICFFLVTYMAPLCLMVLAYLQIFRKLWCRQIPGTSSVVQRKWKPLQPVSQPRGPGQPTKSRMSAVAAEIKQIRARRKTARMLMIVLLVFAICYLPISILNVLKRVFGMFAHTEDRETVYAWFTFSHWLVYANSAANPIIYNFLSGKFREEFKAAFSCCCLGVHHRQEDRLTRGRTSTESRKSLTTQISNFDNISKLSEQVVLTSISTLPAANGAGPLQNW
Description: Orexin receptor antagonistic activity, intracellular Ca2+ fluorescence (FDSS) in CHO cells expressing hOX2R. The settings on record: CHO cells forced to express hOX2R; orexin-A analogue peptide ligand 3 nM; Fluo-4 maximum fluorescence; read-out: IC50 value OX2R. Type of experiment: cell-based. On the procedure: (§1) The antagonistic activity of each test compound against human orexin type 1 receptor (hOX1R) and orexin type 2 receptor (hOX2R) was performed as described in the literature with a modification (Toshikatsu Okumura et al., Biochemical and Biophysical Research Communications 280, 976-981, 2001). Chinese hamster ovary (CHO) cells forced to express hOX1R or hOX2R were seeded at 20,000 cells/well on a 96 well Black clear bottom plates (Nunc) and cultured for 16 hours under conditions of 37° C. and 5% CO2 using a Ham's F-12 medium containing 0.1 mM MEM non-essential amino acids, 0.5 mg/ml G418, and 10% fetal bovine serum (all from Invitrogen Corp.). After removal of the medium, 100 μL of the assay buffer (25 mM HEPES (Dojindo Laboratories), Hanks' balanced salt solution (Invitrogen Corp.), 0.1% bovine serum albumin, 2.5 mM probenecid, 200 μg/ml Amaranth (all from Sigma-Aldrich Corp.), pH 7.4) containing 0.5 μM Fluo-4AM ester (Dojindo Laboratories) was added thereto, and the cells were incubated for 60 minutes under conditions of 37° C. and 5% CO2. After removal of the buffer solution for assay containing Fluo-4AM ester, the test compound was dissolved at a concentration of 10 mM in dimethyl sulfoxide and diluted with the assay buffer, and 150 μL of the diluted solution was then added to each wells, which were then incubated for 30 minutes.
(§2) A peptide (Pyr-[…]11e-Leu-Thr-Leu-NH2; Peptide Institute, Inc.) substituted 2 amino acids of human orexin-A was diluted with the assay buffer to 300 pM (final concentration for hOX1R) or 3 nM (final concentration for hOX2R). 50 μL of this ligand solution was added thereto to start reaction. During the reaction, the fluorescence value of each well was measured every one second for 3 minutes using Functional Drug Screening System (FDSS; manufactured by Hamamatsu Photonics K.K.), and antagonistic activity was determined with the maximum fluorescence value as an index for intracellular Ca^2+ concentration. The antagonistic activity of the test compound was calculated with the fluorescence value of a well supplemented with only a dilution buffer solution as 100% and the fluorescence value of a well supplemented with a buffer solution containing neither the ligand nor the compound as 0%, and determined in terms of 50% inhibitory concentration (IC50 value) from fluorescence values derived from the test compound added at varying concentrations.

Experiment [2] addresses T2, human orexin type 1 receptor (hOX1R) (Homo sapiens, UniProt O43613).
T2 construct: expressed in transfected cells; host or cells: Chinese hamster ovary (CHO) cells
T2 sequence (O43613 1-425): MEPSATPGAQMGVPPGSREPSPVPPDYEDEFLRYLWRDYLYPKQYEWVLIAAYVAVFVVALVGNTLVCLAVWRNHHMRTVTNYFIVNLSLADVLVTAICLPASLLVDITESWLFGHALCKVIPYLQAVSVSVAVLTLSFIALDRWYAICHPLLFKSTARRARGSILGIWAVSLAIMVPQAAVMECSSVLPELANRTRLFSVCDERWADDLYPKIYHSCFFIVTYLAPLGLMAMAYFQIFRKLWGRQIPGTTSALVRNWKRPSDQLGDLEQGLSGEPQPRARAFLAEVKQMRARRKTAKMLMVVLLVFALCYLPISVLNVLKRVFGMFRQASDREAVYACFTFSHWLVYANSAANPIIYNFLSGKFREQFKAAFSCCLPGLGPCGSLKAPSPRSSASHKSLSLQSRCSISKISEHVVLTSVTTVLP
Description: Orexin receptor antagonistic activity, intracellular Ca2+ fluorescence (FDSS) in CHO cells expressing hOX1R. The settings on record: CHO cells forced to express hOX1R; orexin-A analogue peptide ligand 300 pM; Fluo-4 maximum fluorescence; read-out: IC50 value OX1R. The class given is cell-based. On the procedure:
as §1, §2

For `CCN(CCn1ccc(-c2ccc(F)cn2)n1)C(=O)c1ccc(C)cc1-n1nccn1` [Example 47, N-ethyl-N-{2-[3-(5-fluoropyridin-2-yl)-1H-pyrazol-1-yl]ethyl}-4-methyl-2-(2H-1,2,3-triazol-2-yl)benzamide], the figures for the IC50 in experiment [1] and in experiment [2] were 7.1 nM and 0.8 nM, respectively.

Consider `CCN(CCn1ccc(-c2ccc(F)cn2)n1)C(=O)c1cccc(F)c1-n1nccn1` [Example 48, N-ethyl-3-fluoro-N-{2-[3-(5-fluoropyridin-2-yl)-1H-pyrazol-1-yl]ethyl}-2-(2H-1,2,3-triazol-2-yl)benzamide], for which the IC50 in experiment [1] is 10.3 nM; in experiment [2], 5.5 nM.

`CCN(CCn1ccc(-c2ccc(F)cn2)n1)C(=O)c1ccc(F)cc1-c1ncccn1` [Example 49, N-ethyl-4-fluoro-N-{2-[3-(5-fluoropyridin-2-yl)-1H-pyrazol-1-yl]ethyl}-2-(pyrimidin-2-yl)benzamide]: the results for the IC50 in experiment [1] and in experiment [2] were 48.8 nM and 7.1 nM, respectively.

For the compound `CCN(CCn1ccc(-c2ccc(F)cn2)n1)C(=O)c1cc(OC)ccc1-n1nccn1` [Example 50, N-ethyl-N-{2-[3-(5-fluoropyridin-2-yl)-1H-pyrazol-1-yl]ethyl}-5-methoxy-2-(2H-1,2,3-triazol-2-yl)benzamide], the results for the 50% inhibitory concentration (IC50) in experiment [1] and in experiment [2] were 214 nM and 20 nM, respectively.

Take `CCN(CCn1ccc(-c2ccc(C(F)(F)F)cn2)n1)C(=O)c1cc(C)ccc1-n1nccn1` [Example 51, N-ethyl-5-methyl-2-(2H-1,2,3-triazol-2-yl)-N-(2-{3-[5-(trifluoromethyl)pyridin-2-yl]-1H-pyrazol-1-yl}ethyl)benzamide]: the IC50 in experiment [1] was found to be 394 nM; in experiment [2] it was 50.9 nM.

For the compound `CCN(CCn1ccc(-c2cccc(C(F)(F)F)n2)n1)C(=O)c1cc(C)ccc1-n1nccn1` [Example 52, N-ethyl-5-methyl-2-(2H-1,2,3-triaz ° 1-2-yl)-N-(2-{3-[6-(trifluoromethyl)pyridin-2-yl]-1H-pyrazol-1-yl}ethyl)benzamide], the IC50 was 1.3 nM in experiment [1] and 1.1 nM in experiment [2].

Consider `CCN(CCn1ccc(-c2ccc(F)c(F)c2)n1)C(=O)c1cc(F)ccc1-c1ncccn1` [Example 53, N-{2-[3-(3,4-difluorophenyl)-1H-pyrazol-1-yl]ethyl}-N-ethyl-5-fluoro-2-(pyrimidin-2-yl)benzamide], for which the results for the IC50 in experiment [1] and in experiment [2] were 7.8 nM and 1.5 nM, respectively.

`CCN(CCn1ccc(-c2ccc(F)cc2)n1)C(=O)c1cc(F)ccc1-c1ncccn1` [Example 54, N-ethyl-5-fluoro-N-{2-[3-(4-fluorophenyl)-1H-pyrazol-1-yl]ethyl}-2-(pyrimidin-2-yl)benzamide]: the results for the IC50 in experiment [1] and in experiment [2] were 19.2 nM and 2 nM, respectively.

As for `CCN(CCn1cc(-c2ccc(F)cn2)cn1)C(=O)c1cc(Cl)ccc1-n1nccn1` [Example 55, 5-Chloro-N-ethyl-N-{2-[4-(5-fluoropyridin-2-yl)-1H-pyrazol-1-yl]ethyl}-2-(2H-1,2,3-triazol-2-yl)benzamide], the values for the IC50 in experiment [1] and in experiment [2] were 2.3 nM and 1.6 nM, respectively.

With `CCN(CCn1cc(-c2ccc(F)cn2)cn1)C(=O)c1cc(F)ccc1-n1nccn1` [Example 56, N-ethyl-5-fluoro-N-{2-[4-(5-fluoropyridin-2-yl)-1H-pyrazol-1-yl]ethyl}-2-(2H-1,2,3-triazol-2-yl)benzamide], the IC50 in experiment [1] is 95.9 nM; in experiment [2], 38 nM.

`CCN(CCn1ccc(-c2cccc(C(F)(F)F)n2)n1)C(=O)c1cc(F)ccc1-c1ncccn1` [Example 57, N-ethyl-5-fluoro-2-(pyrimidin-2-yl)-N-(2-{3-[6-(trifluoromethyl)pyridin-2-yl]-1H-pyrazol-1-yl}ethyl)benzamide]: the IC50 in experiment [1] worked out at 99.5 nM; in experiment [2], 22.9 nM.

In the case of `CCN(CCn1ccc(-c2cccc(C(F)(F)F)n2)n1)C(=O)c1ccccc1-c1ncccn1` [Example 58, N-ethyl-(pyrimidin-2-yl)-N-(2-{3-[6-(trifluoromethyl)pyridin-2-yl]-1H-pyrazol-1-yl}ethyl)benzamide], the IC50 in experiment [1] stood at 140 nM; in experiment [2], 78.9 nM.

For the compound `CCN(CCn1ccc(-c2ccc(F)c(F)c2)n1)C(=O)c1ccccc1-c1ncccn1` [Example 59, N-{2-[3-(3,4-difluorophenyl)-1H-pyrazol-1-yl]ethyl}-N-ethyl-2-(pyrimidin-2-yl)benzamide], the IC50 in experiment [1] came to 5.6 nM; in experiment [2], 1.9 nM.

Consider `CCN(CCn1ccc(-c2cc(C(F)(F)F)ccn2)n1)C(=O)c1cc(C)ccc1-n1nccn1` [Example 60, N-ethyl-5-methyl-2-(2H-1,2,3-triazol-2-yl)-N-(2-{3-[4-(trifluoromethyl)pyridin-2-yl]-1H-pyrazol-1-yl}ethyl)benzamide], for which the IC50 in experiment [1] came to 127 nM; in experiment [2], 21.9 nM.

For `CCN(CCn1ccc(-c2cc(C(F)(F)F)ccn2)n1)C(=O)c1cc(F)ccc1-c1ncccn1` [Example 61, N-ethyl-5-fluoro-2-(pyrimidin-2-yl)-N-(2-{3-[4-(trifluoromethyl)pyridin-2-yl]-1H-pyrazol-1-yl}ethyl)benzamide], the figures for the IC50 in experiment [1] and in experiment [2] were 1130 nM and 239 nM, respectively.
